Experimental data published in paper PMC3475717, “A Spiroligomer α-Helix Mimic That Binds HDM2, Penetrates Human Cells and Stabilizes HDM2 in Cell Culture” (PLoS ONE, 2012).
Entries after “also recorded” stand apart in the source; their conditions may differ.

Experiments:
Huh7 cells = test: cell penetration, fluorescence and confocal microscopy; type: cell-based, human; conditions: Huh7, 37°C
Protocol: Table S.7. Parameters used for the non-linear fit for the plot of the competition binding experiment.
(§1) Cell Culture and Treatment. HepG2 (expressing wild-type p53) and Huh7 (expressing mutant p53) cell lines were purchased from the American Type Culture Collection (ATCC) and cultured as monolayers in Dulbecco’s modified Eagle’s medium (DMEM) (Invitrogen) supplemented with 100 mM nonessential amino acid solution, 100 mM sodium pyruvate, 100 U/mL penicillin, 100 μg/mL streptomycin, and 10% heat inactivated fetal bovine serum (FBS) (all from Hyclone).
(§2) Cells were maintained at 37° C and 5% CO2 and were treated with media that contained 0.5%
(§3) FBS. Nutlin-3 (Sigma) was dissolved in 0.01% DMSO (Sigma). This concentration of DMSO did not affect the cell phenotype. Both nutlin-3 and spiroligomers were added into the medium for final concentrations of 2 µM, 5 µM, 10 µM and 20 µM for 24 hours. For the western blot experiments detailed below, the time length for incubation with bis-peptide was 17 hours.
Fluorescence and Confocal Microscopy. Fluorescence and confocal microscopy were applied to live and fixed cells. Cells were grown on glass chambers and fixed with ice-cold 95:5 ethanol/acetic acid for 10 minutes at -20 °C. […] Fluorescent specimens were analyzed using an ECLIPSE Ti microscope (Nikon), lenses with hardened […]
Western Blotting. […] Images were quantified using ImageJ software (NIH). […]

HepG2 cells = test: cell penetration, fluorescence and confocal microscopy; active vs. passive transport; type: cell-based, human; conditions: HepG2, 37°C, 5 µM, 3.75 hours
Protocol: as §1, §2, §3
Fluorescence and Confocal Microscopy. Fluorescence and confocal microscopy were applied to live and fixed cells. Cells were grown on glass chambers and fixed with ice-cold 95:5 ethanol/acetic acid for 10 minutes at -20 °C. Sections were washed with PBS and mounted in Vectashield aqueous mounting medium with DAPI (Vector laboratories). Fluorescent specimens were analyzed using an ECLIPSE Ti microscope (Nikon), lenses with hardened […]
(1 picture or pasted object on this page, not shown here) […]
filters (Nikon), and a Nikon DS-Fi1 camera, which was operated by NIS Elements computer software (Nikon). Confocal microscopy was performed with a Leica SP-1 microscope, with illumination at 488 nm and spectral detection. […]
Mathematical model described8 and MxPro software (Stratagene) were used to process PCR data. End-point PCR reactions were assayed with PCR Master Mix (Promega). Samples were amplified in 34 cycles; each cycle consisted of 30 sec of denaturation at 95 °C, 30 sec of annealing at 60 °C, and 30 sec of elongation at 72 °C. After 34 cycles, samples were subjected to final elongation for 5 minutes at 72 °C. […]
fluorescence in the images.

uptake of fluorescence (control) (Huh7 cells): no visible uptake of fluorescence
Structure (SMILES): O=C1OC2(c3ccc(O)cc3Oc3cc(O)ccc32)c2ccccc21 [fluorescein, reference compound]
uptake of fluorescence (control) (HepG2 cells): no visible uptake of fluorescence; also recorded: failed to produce any fluorescence
